Several values for one entry are separate records, joined by “and”; a condition that tells them apart may be missing. Identical values can stand only once.
Settings: Liquid, Pendant drop shape

CCCCn1cc[n+](C)c1.CCOCCOCCOS(=O)(=O)[O-] [1-butyl-3-methylimidazolium 2-(2-ethoxyethoxy)ethylsulfate] + O=C=O
Settings	interfacial tension [mN/m]
281.3 K, 1960 kPa	23
281.3 K, 3680 kPa	10.8
281.31 K, 100 kPa	34.5
281.31 K, 3150 kPa	15.1
281.32 K, 1110 kPa	28.2
281.48 K, 4300 kPa	4.6
281.58 K, 5100 kPa	4.5
281.58 K, 6970 kPa	4.5
281.61 K, 9890 kPa	4
281.61 K, 13700 kPa	3.8
281.63 K, 17000 kPa	3.7
281.63 K, 19930 kPa	3.5
281.69 K, 100 kPa	34.3
281.69 K, 1490 kPa	25.4
281.7 K, 600 kPa	30.6
281.7 K, 2830 kPa	17.3
281.7 K, 4160 kPa	6.5
281.84 K, 4340 kPa	4.9
281.86 K, 12130 kPa	4.4
281.87 K, 5900 kPa	4.7
281.91 K, 18060 kPa	3.7
295.14 K, 100 kPa	34
295.2 K, 100 kPa	34.2
295.3 K, 1030 kPa	29.3
295.39 K, 1980 kPa	25
295.5 K, 3350 kPa	18.8
295.8 K, 3950 kPa	16.3
296.03 K, 4960 kPa	12.4
296.29 K, 6150 kPa	12.8
296.31 K, 6630 kPa	5.8
296.35 K, 8190 kPa	5.6
296.42 K, 10120 kPa	5.2
296.5 K, 14370 kPa	4.8
296.53 K, 17640 kPa	4.5
319.53 K, 100 kPa	33.3
319.57 K, 2130 kPa	27.7
319.58 K, 1030 kPa	30.4
319.58 K, 3610 kPa	23.6
319.59 K, 5010 kPa	19.5
319.6 K, 6190 kPa	16.4
319.63 K, 7090 kPa	14
319.69 K, 8100 kPa	12.3
319.71 K, 9070 kPa	7.7
319.78 K, 10070 kPa	7.9
319.78 K, 11080 kPa	8
319.79 K, 11720 kPa	7.9
319.85 K, 14840 kPa	7.6
319.91 K, 17840 kPa	7.1
319.94 K, 20870 kPa	6.7

CCOCCOCCOS(=O)(=O)[O-].CCn1cc[n+](C)c1 [1-ethyl-3-methylimidazolium 2-(2-ethoxyethoxy)ethylsulfate] + O=C=O
Settings	interfacial tension
280.25 K, 100 kPa	36.7 mN/m and 37.3 mN/m
280.26 K, 1170 kPa	30.3 mN/m
280.26 K, 2340 kPa	22.6 mN/m
280.26 K, 3340 kPa	15.5 mN/m
280.28 K, 3950 kPa	9.8 mN/m
280.4 K, 4240 kPa	6.3 mN/m
280.46 K, 5230 kPa	6.6 mN/m
280.46 K, 7030 kPa	6 mN/m
280.49 K, 8960 kPa	5.8 mN/m
280.51 K, 10860 kPa	5.4 mN/m
280.53 K, 12970 kPa	5.4 mN/m
280.54 K, 15110 kPa	5.1 mN/m
280.55 K, 17290 kPa	5.1 mN/m
280.58 K, 20670 kPa	4.7 mN/m
299.4 K, 100 kPa	36.2 mN/m
299.43 K, 4810 kPa	14.9 mN/m
299.43 K, 14740 kPa	6.6 mN/m
299.45 K, 16390 kPa	6.4 mN/m
299.46 K, 17880 kPa	6.2 mN/m
299.47 K, 6680 kPa	8.6 mN/m
299.48 K, 20360 kPa	6 mN/m
299.53 K, 10230 kPa	7.6 mN/m
299.54 K, 12350 kPa	6.8 mN/m
299.55 K, 8330 kPa	7.9 mN/m
319.74 K, 2000 kPa	28.5 mN/m
319.74 K, 3090 kPa	25.1 mN/m
319.74 K, 4040 kPa	22.2 mN/m
319.75 K, 100 kPa	35.5 mN/m and 35.4 mN/m
319.75 K, 1010 kPa	31.5 mN/m
319.75 K, 5010 kPa	19.4 mN/m
319.76 K, 5950 kPa	16.5 mN/m
319.76 K, 8950 kPa	7.6 mN/m
319.78 K, 7260 kPa	13.1 mN/m
319.87 K, 10740 kPa	9.8 mN/m
319.87 K, 12430 kPa	8.9 mN/m
319.95 K, 14470 kPa	8.4 mN/m
319.98 K, 17410 kPa	7.8 mN/m
320.03 K, 20790 kPa	7.7 mN/m

From the NIST ThermoML archive (doi:10.1021/je8006937)
